{"source": "patent US9980976B2", "about": "“Use of REDD1 inhibitors to dissociate therapeutic and adverse atrophogenic effects of glucocorticoid receptor agonists” (Northwestern University, priority 2015, dated 2018)", "key": {"LC3": {"test_system": "LC3", "assay": "Autophagy in mouse epidermis (LC3-I to LC3-II conversion, Beclin-1)", "type": "in vivo", "conditions": "FA-treated mouse skin", "experimental": "In accordance, we observed in FA-treated skin the conversion of light chain 3 (LC3) from its free form (LC3-I) to a membrane-bound state (LC3-II), a key step that initiates autophagy in mammalian cells (Klionsky et al, 2012). LC3-I to LC3-II conversion reached its maximum 8 h after FA treatment and paralleled with the increase of another autophagy marker Beclin-1, highest REDD1 expression and strongest repression of mTOR activity (FIGS. 2C, D).\nThe whole-cell protein extracts were prepared using RIPA buffer with protease and phosphatase inhibitor cocktails (Thermo Scientific, Thermo Fisher Scientific Inc., Waltham, Mass., USA), resolved by SDS-PAGE on 4-20% gels and transferred to Odyssey nitrocellulose membranes (LI-COR Biosciences, Lincoln, Neb., USA). Membranes were blocked with Odyssey Blocking Buffer and incubated with primary antibodies overnight at 4° C., followed by IRDye® secondary antibodies (LI-COR Biosciences). LI-COR Odyssey Imager was used for the band visualization. Equal loading and adequate transfer to the membranes were verified by staining with Ponceau S (Sigma-Aldrich) and with anti-GAPDH (Sigma-Aldrich) antibody. We used Abs against: REDD1 (Proteintech Group, Inc., Chicago, Ill.), LC3B, phospho-rpS6Ser240/244, phospho-4E-BP1Thr37/46, phospho-GRSer211 (Cell Signaling Technology, Inc.), and GR (H-300 or M-20, Santa Cruz Biotechnology, Inc.)."}, "FKBP51 and GILZ": {"test_system": "FKBP51 and GILZ", "assay": "Q-PCR analysis of GR target genes FKBP51 and GILZ in HaCaT and CEM cells", "type": "cell-based, human", "conditions": "FA 1 uM 24 h", "experimental": "FIG. 13. Rapamycin inhibits GR transactivation. A, B. Q-PCR analysis of FKBP51 and GILZ expression in HaCaT (A) and CEM (B) cells. Cells were pretreated with solvent or Rapa (1 uM)×6 hrs and treated with solvent (Control) or FA (1 uM) for 24 h. A,B. Q-PCR results were normalized to the expression of the housekeeping Rp127 gene, and presented as fold of change compared to control cells. The means+/−SD calculated for three individual RNA samples/condition. a—Statistically significant difference (P<0.05) compared to control; b—Statistically significant differences (P<0.05) compared to FA treatment. C. Inhibitory effect of rapamycin on GRE.Luciferase reporter. […] The means+SD were calculated for three individual wells/group in one representative experiment (out of three experiments). a—Statistically significant differences (P<0.05) in comparison to vehicle treatment; b—Statistically significant differences (P<0.05) in comparison to FA treatment.\n(§1) Total RNA from murine epidermis, whole human skin, and cell cultures was isolated with RiboPure kit (Ambion, Life Technologies, Grand Island, N.Y., USA). […] The gene expression was assessed using semi-quantitative two-step RT-PCR and quantitative Q-PCR. […] For semi-quantitative PCRs, Taq DNA polymerase (Promega) was used, and PCR products were separated on 1.5% agarose gel and visualized using automated imaging system (Bio-Rad, Hercules, Calif., USA). […]"}, "GR": {"test_system": "GR", "assay": "GR phosphorylation at Ser211 (Western blot) in HaCaT and CEM cells", "type": "cell-based, human", "conditions": "1 uM FA", "experimental": "FIG. 15. Rapamycin inhibits GR nuclear translocation and phosphorylation. A. GR nuclear translocation in HaCaT cells was determined by immunofluorescence as described in Materials and Methods. Cells on coverslips were pretreated with solvent (Control) or Rapamycin (1 uM×6 h) and treated with 1 uM FA for indicated time. B. GR nuclear translocation in CEM cells was determined by Western blot analysis of nuclear protein extracts. Membranes were probed with anti-HDAC-1 antibodies to verify equal protein loading and transfer. C, D. GR phosphorylation in HaCaT (C) and CEM (D) cells was determined by Western blot analysis of whole cell lysates. Membranes were probed with anti-GAPDH antibodies to verify equal protein loading and transfer.\nThe whole-cell protein extracts were prepared using RIPA buffer with protease and phosphatase inhibitor cocktails (Thermo Scientific, Thermo Fisher Scientific Inc., Waltham, Mass., USA), resolved by SDS-PAGE on 4-20% gels and transferred to Odyssey nitrocellulose membranes (LI-COR Biosciences, Lincoln, Neb., USA). Membranes were blocked with Odyssey Blocking Buffer and incubated with primary antibodies overnight at 4° C., followed by IRDye® secondary antibodies (LI-COR Biosciences). LI-COR Odyssey Imager was used for the band visualization. […]"}, "[1]": {"test_system": "croton oil-induced ear edema", "assay": "Croton oil-induced ear edema test", "type": "in vivo, mouse"}, "[2]": {"test_system": "NF-kB dependent genes cyclins D1 and D2, MMP1 and CD74", "assay": "Q-PCR analysis of NF-kB dependent genes in HaCaT and CEM cells", "type": "cell-based, human", "conditions": "single treatments, 1 uM", "experimental": "FIG. 14. Rapamycin enhances GR transrepression. A, B. Q-PCR analysis of MMP13 and CD74 expression in HaCaT cells (A) and cyclin D1 (CCND1) and cyclin D2 (CCND2) expression in CEM cells (B). Cells were pretreated with solvent or Rapa (1 uM)×6 hrs and treated with solvent (Control) or FA (1 uM) for 24 h. A, B. Q-PCR results were normalized to the expression of the housekeeping Rp127 gene, and presented as fold of change compared to control cells. The means+/−SD calculated for three individual RNA samples/condition. a—Statistically significant difference (P<0.05) compared to control; b—Statistically significant differences (P<0.05) compared to FA treatment. C. […] The means+SD were calculated for three individual wells/group in one representative experiment (out of three experiments). a—Statistically significant differences (P<0.05) in comparison to vehicle treatment; b—Statistically significant differences (P<0.05) in comparison to FA treatment.\nas §1"}}}
{"smiles": "CC1(C)O[C@@H]2C[C@H]3[C@@H]4C[C@H](F)C5=CC(=O)C=C[C@]5(C)[C@@]4(F)[C@@H](O)C[C@]3(C)[C@]2(C(=O)CO)O1", "note": "[FA, fluocinolone acetonide]", "values": [{"measurement": "time of maximum LC3-I to LC3-II conversion after treatment", "setting": "LC3", "value": 8, "unit": "h"}, {"measurement": "FKBP51 and GILZ expression", "setting": "FKBP51 and GILZ", "value": "strongly activated"}, {"measurement": "GR phosphorylation at Ser211", "setting": "GR", "value": "induced quick GR phosphorylation"}, {"measurement": "ear edema / ear weight", "setting": "[1]; croton oil 20 ul/ear, FA 1 ug/ear 1 h before CO, weighed 9 h after CO", "value": "reduced edema decreasing the ear weight to control level"}, {"measurement": "anti-inflammatory effect (ear morphology and ear punch weight)", "setting": "[1]; wild-type and REDD1 KO mice, FA 2 μg 1 h before croton oil, 9 h after CO", "value": "relieved this inflammatory response with equal potency"}, {"measurement": "basal expression of NF-kB dependent genes cyclins D1 and D2, MMP1 and CD74", "setting": "[2]", "value": "inhibited"}]}
